Our source for the logP values is the OPERA property sets (Mansouri et al. 2018).

Peptide text beside a SMILES is read from it.

In turn, `COC1CC(OC2CCC3(C)C(CCC4C3CC(O)C3(C)C(C5=CC(=O)OC5)CCC43O)C2)OC(C)C1OC1CC(O)C(OC2CC(O)C(OC)C(C)O2)C(C)O1` (stereo not given) returned a lipophilicity (logP) of 2.14.

With `CC1CCCC(C)N1` (stereo not given), the logP was determined as 1.53.

The compound `COc1cc(CC(=O)O)ccc1OC(C)C` yielded a logP of 1.75.

Turning to `C=CC(=O)c1ccccc1`, the logP was determined as 1.88.

The compound `CON(C)C(=O)Nc1ccc(Cl)c(Cl)c1` showed a logP of 3.2.

Compound `CC(=O)N[C@@H](CC(C)C)C(=O)N[C@@H](CO)C(=O)N[C@@H](Cc1ccccc1)C(N)=O` (Ac-Leu-Ser-Phe-NH2) came in with a logP of 0.23.

`OC[C@H]1O[C@@H](Oc2ccccc2)[C@H](O)[C@@H](O)[C@@H]1O` showed a logP of -0.75.

`NNC(=O)c1ccccc1O` gave a log partition coefficient (logP) of 0.6.

Compound `OC(c1ccccc1)C1CCCCN1` (stereo not given) showed a logP of 1.58.

With `O=C(O)c1cc([N+](=O)[O-])cc([N+](=O)[O-])c1`, the logP was 1.55.

`Cc1cccc(C=C(C(N)=O)C(N)=O)c1` gave a logP of 0.4.

Take `CC(Cl)(Cl)C(=O)O`: the lipophilicity (logP) was 0.78.

`NC(=O)c1cccc(Br)c1` came in with a log partition coefficient (logP) of 1.65.

For the compound `COc1cccc(N(C)C(=S)Oc2cccc(C(C)(C)C)c2)n1`, the lipophilicity (logP) was 5.18.

In turn, `CC(=O)c1ccccc1OCC(=O)O` showed a logP of 1.25.

With `CC(C)(C)NC[C@H](O)COc1ccccc1C1CCCC1`, the log partition coefficient (logP) was found to be 4.15.

`Cc1onc(-c2ccccc2)c1C(=O)NC1C(=O)N2C1SC(C)(C)C2C(=O)O` (stereo not given) came in with a logP of 2.38.

The compound `Cc1cc2nc[nH]c2cc1C` displayed a lipophilicity (logP) of 2.35.

On to `O=c1[nH]c(=O)n([C@H]2C[C@H](O)[C@@H](CO)O2)cc1Br`, for which the lipophilicity (logP) was -0.29.

For `Clc1ccccc1-c1cccc(Cl)c1Cl`, the lipophilicity (logP) is 5.31.

Compound `O=Cc1ccco1` had a logP of 0.41.

In turn, `COc1ccc(C(C[N+](=O)[O-])c2ccc(OC)cc2)cc1` had a logP of 3.57.

In turn, `CCSCCSP(=O)(OC)OC` had a logP of 1.02.

Compound `CC1(C)N=C(N)N=C(N)N1c1ccc(F)cc1` had a log partition coefficient (logP) of 0.37.

For the compound `C=C(C)C(=O)OC`, the logP came out at 1.38.

With `Cc1ccc(-c2cc3ccccn3c2)cc1`, the log partition coefficient (logP) worked out at 4.96.

`COC(=O)c1cccc(S(I)=C(N(C)C)N(C)C)c1` (stereo not given): the logP was -0.75.

For the compound `COc1c(O)c(OC)c(OC)c(O)c1OC`, the lipophilicity (logP) came out at 0.39.

`C1CO1` yielded a logP of -0.3.

On to `CN(C)C(N(C)C)=S(I)c1cccc(Cl)c1` (stereo not given), for which the logP was -0.17.

The compound `CN(C)c1ccc([N+](=O)[O-])cc1` returned a logP of 2.27.

For `OCc1ccc2ccccc2c1`, the logP was 2.21.

For `ON=CCCc1ccccc1`, the logP was 1.56.

In turn, `C[C@@H]1C[C@H]2[C@@H]3CCC4=CC(=O)C=C[C@]4(C)[C@@]3(F)[C@@H](O)C[C@]2(C)[C@@]1(O)C(=O)CO` had a log partition coefficient (logP) of 1.83.

Take `CC(=NNC(=S)NNC(=S)N(C)C)c1ccccn1`: the logP turned out to be 1.25.

Compound `CCCBr` yielded a logP of 2.1.

In turn, `CC(=O)Nc1cc(C)c(O)c(C)c1` registered a lipophilicity (logP) of 1.11.

For `CN(C)/N=N/c1ccccc1I`, the log partition coefficient (logP) amounted to 3.5.

Compound `O=C(O)C1Cc2cc(Cl)ccc2O1` (stereo not given) returned a logP of 2.11.

On to `CN(C)C(=O)Nc1ccc([N+](=O)[O-])cc1`, for which the logP was 1.51.

In turn, `OC(c1ccc(Cl)cc1)(c1cncnc1)c1ccccc1Cl` (stereo not given) registered a log partition coefficient (logP) of 3.6.

`COc1cccc(OC)c1C(=O)N[C@@H]1C(=O)N2[C@@H]1SC(C)(C)[C@@H]2C(=O)O` returned a logP of 1.22.

On to `COc1cc2c(c(OC)c1OC)-c1ccc(OC)c(=O)cc1C(N)CC2` (stereo not given), for which the log partition coefficient (logP) was found to be 1.1.

As to `Nc1cn[nH]c1`, the logP is -1.09.

Consider `COc1ccc(C(c2ccc(OC)cc2)C(F)(F)F)cc1`, for which the logP came out at 4.76.

In turn, `c1ccc2c(c1)cnn2C12CC3CC(CC(C3)C1)C2` displayed a logP of 4.33.

Compound `Nc1cccc(CO)c1` had a logP of -0.05.

Regarding `Nc1ccc(/N=N/c2ccccc2)cc1`, the logP came to 3.41.

In turn, `CCN(CC)c1nc(C)cc(OP(=S)(OC)OC)n1` gave a log partition coefficient (logP) of 4.2.

`NC(=O)c1cnccn1` showed a lipophilicity (logP) of -0.6.

Regarding `COc1cc(CC(C)N)c(OC)cc1C` (stereo not given), the logP was 2.24.

Turning to `Nc1ccc(C(=O)Oc2ccc(F)cc2)c(O)c1`, the logP came to 3.27.

On to `c1ccc(Nc2cccc3ccccc23)cc1`, for which the lipophilicity (logP) amounted to 4.2.

On to `Nc1cccc(S(N)(=O)=O)c1`, for which the logP was -0.38.

Compound `c1ccc(-c2nc3ccccc3[nH]2)cc1` gave a logP of 3.24.

Compound `Cc1cc2c(cc1S(N)(=O)=O)S(=O)(=O)NCN2` registered a log partition coefficient (logP) of -0.22.

In the case of `Cc1cc(C(=O)NN)ccn1`, the log partition coefficient (logP) was -0.37.

`O=C1C2(Cl)C3(Cl)C4(Cl)C(Cl)(Cl)C5(Cl)C3(Cl)C1(Cl)C5(Cl)C24Cl` (stereo not given) displayed a lipophilicity (logP) of 5.41.

On to `CCN(CC)CCNC(=O)c1cc([N+](=O)[O-])c(N)cc1OC`, for which the logP amounted to 2.11.

`NC(Cc1ccc2ccccc2c1)C(=O)O` (stereo not given) yielded a lipophilicity (logP) of -0.15.

For the compound `CN(C)N=Nc1ccc(CCCC(=O)O)cc1`, the log partition coefficient (logP) was 2.62.

With `COc1cc2c(cc1OC)C13CCN4CC5CCOC6CC(=O)N2C1C6C5CC43` (stereo not given), the lipophilicity (logP) is 0.84.

On to `COC(=O)CC(C)C`, for which the logP was found to be 1.82.

Regarding `CNC(=O)c1cccnc1`, the lipophilicity (logP) worked out at 0.

Consider `CC1(C)SC2C(NC(=O)C(C(=O)Oc3ccccc3)c3ccccc3)C(=O)N2C1C(=O)O` (stereo not given), for which the lipophilicity (logP) is 3.14.

For `O=C(Nc1ccc(Cl)c(Cl)c1)C1CC1`, the log partition coefficient (logP) worked out at 3.83.

In turn, `Oc1cccc(C(F)(F)F)c1` returned a logP of 2.95.

`O=C1C=CC(=O)N1c1ccccc1`: the lipophilicity (logP) amounted to 1.09.

On to `CCOc1cccc(S(I)=C(N(C)C)N(C)C)c1` (stereo not given), for which the lipophilicity (logP) was -0.1.

In turn, `COc1cc(S(C)=O)ccc1-c1nc2ccncc2[nH]1` (stereo not given) returned a log partition coefficient (logP) of 1.25.

`NCc1ccncc1`: the log partition coefficient (logP) is -0.38.

The compound `Cc1cc(=O)cc(C)o1` gave a log partition coefficient (logP) of 0.1.

As for `O=[N+]([O-])c1ccc2oncc2c1`, the lipophilicity (logP) amounted to 1.46.

In turn, `O=C(O)c1ccccc1O` gave a logP of 2.26.

In the case of `Cc1c2ccccc2c(C)c2c1ccc1ccccc12`, the logP is 5.8.

As to `c1ccc2c(c1)CCCN2`, the logP came out at 2.29.

`COC(=O)c1ccccc1C` displayed a log partition coefficient (logP) of 2.75.

`O=[N+]([O-])c1ccc(Cl)c(Cl)c1Cl` displayed a lipophilicity (logP) of 3.61.

With `CC(C)(C)NC(=O)[C@H]1CC[C@H]2[C@@H]3CC[C@H]4NC(=O)C=C[C@]4(C)[C@H]3CC[C@]12C`, the logP is 3.03.

`O=c1cccccc1O` had a lipophilicity (logP) of 0.53.

`O=Cc1ccccc1Cl` displayed a logP of 2.33.

In turn, `CC12CCC(=O)C=C1CCC1C3CCC(O)(C(=O)CO)C3(C)CC(O)C12F` (stereo not given) showed a logP of 1.67.

As to `CCCCCCn1cc(C)c(=O)[nH]c1=O`, the logP stood at 1.93.

In turn, `CC1N=C(c2ccccc2)c2cc(Cl)ccc2NC1=O` (stereo not given) registered a lipophilicity (logP) of 3.33.

With `Cc1ccc(NC(=O)c2ccccc2)c(O)c1`, the log partition coefficient (logP) was determined as 3.08.

On to `Cc1ccc(C(=O)O)c(O)c1`, for which the lipophilicity (logP) was found to be 2.99.

`CCCCCc1ccncc1` came in with a logP of 3.75.

Regarding `CCCNc1nc(NC)nc(SC(F)F)n1`, the logP was found to be 3.28.

In the case of `CC(N)(Cc1ccc(O)cc1)C(=O)O` (stereo not given), the lipophilicity (logP) is -1.89.

Compound `Nc1ncnc2nn[nH]c12` gave a logP of -0.96.

Compound `O=C(O)C(CO)c1ccccc1` (stereo not given) had a lipophilicity (logP) of 0.77.

`CCCC(N)C(=O)O` (stereo not given) had a logP of -2.11.

As for `O=C(O)C1c2ccccc2Sc2ccccc21`, the logP came to 2.57.

Regarding `c1ccc2nc(-c3ccc4ccccc4n3)ccc2c1`, the logP amounted to 4.31.

`COc1cc(SC)c(OC)cc1CC(C)N` (stereo not given): the logP is 2.17.

The compound `Cc1ccncc1` registered a lipophilicity (logP) of 1.22.

As for `CCSC(=O)N(CC(C)C)CC(C)C`, the log partition coefficient (logP) turned out to be 4.15.

Turning to `CCN(CC)S(=O)(=O)c1ccc(OC)c(N)c1`, the log partition coefficient (logP) came to 1.7.

`O=S1(=O)OCC2C(CO1)C1(Cl)C(Cl)=C(Cl)C2(Cl)C1(Cl)Cl` (stereo not given) showed a logP of 3.66.

For `OCc1ccc2cccnc2c1`, the logP worked out at 1.29.

`Fc1cccc(F)n1` had a logP of 1.17.

Compound `O=c1cccc[nH]1` had a logP of -0.58.

Compound `CC(=O)Nc1cccc(C(F)(F)F)c1` gave a lipophilicity (logP) of 2.56.

`CON(C)C(=O)Nc1ccc(F)cc1`: the logP amounted to 1.46.

For `CC(=O)Nc1ccc2cccccc1-2`, the logP was 2.48.

Turning to `Cc1cccc(OCC(=O)O)c1`, the logP is 1.78.

`COc1ccc(C(c2ccc(OC)cc2)C(Cl)(Cl)Cl)cc1`: the logP was 5.08.

For `CCCCBr`, the logP is 2.75.

With `C=C(Cl)Cl`, the logP amounted to 2.13.

Turning to `O=CO`, the lipophilicity (logP) was -0.54.

`CCC#N` displayed a logP of 0.16.

Consider `Cc1cc(C)nc(C)c1`, for which the lipophilicity (logP) was found to be 1.88.

As to `Cn1cnc([N+](=O)[O-])n1`, the logP is -0.68.

Take `COc1cc2c(c(OC)c1OC)-c1ccc(O)c(=O)cc1C(NC(C)=O)CC2` (stereo not given): the logP turned out to be 1.2.

Turning to `Cc1ccccc1NS(=O)(=O)c1ccc(N)cc1`, the logP came out at 2.03.

Regarding `OCCN1CCN(CCC=C2c3ccccc3Sc3ccc(C(F)(F)F)cc32)CC1`, the logP worked out at 4.51.

In the case of `COc1cc2c(c(OC)c1OC)-c1ccc(=O)c(OC)cc1C(NC(C)=O)CC2` (stereo not given), the log partition coefficient (logP) came out at 1.

Take `O=c1cncc[nH]1`: the logP is -1.49.

`Clc1ccc(-c2ccc(Cl)c(Cl)c2Cl)cc1` displayed a logP of 5.84.

On to `O=C(Cc1ccccc1)NC(CO)C(O)c1ccc([N+](=O)[O-])cc1` (stereo not given), for which the logP was 1.52.

On to `CN(C)Cc1cccnc1`, for which the logP came to 0.49.

Compound `CCCCCCCOc1ccccc1NC(=O)OCCN1CCCCC1` returned a logP of 5.62.

As for `COc1ccc(N2C(=O)CCC2=O)cc1`, the log partition coefficient (logP) came to 0.15.

In turn, `COc1ccccc1C(C)=O` yielded a logP of 1.82.

Turning to `CC(C)OC(=O)Nc1cccc(Cl)c1`, the logP was found to be 3.51.

Regarding `Cc1cc2nccnc2cc1C`, the lipophilicity (logP) turned out to be 2.29.

As for `Nc1ncnc2c1ncn2[C@@H]1O[C@H](CO)[C@@H](O)[C@H]1O`, the logP is -1.05.

In turn, `CC1=C(N2CC2)C(=O)C(CCO)=C(N2CC2)C1=O` returned a lipophilicity (logP) of 0.49.

`COc1ccc(C(O)C(C(=O)O)c2ccc(-c3ccccc3)cc2)cc1` (stereo not given) registered a log partition coefficient (logP) of 3.59.

`c1ccc(Nc2ccccc2)cc1` had a log partition coefficient (logP) of 3.5.

By logP is commonly meant a log measure of how a compound divides between an organic and an aqueous phase. Read a high logP as a more lipophilic compound.
